ChEMBL document CHEMBL1122370 (J Med Chem, 1983)
Several values for one entry are separate records, joined by “and”; a condition that tells them apart may be missing. Equal entries are not always repeated.

How the values were obtained:
[1] = system: Mus musculus; test: Average weight of the mouse after treating with 160 mg/kg dose for 7 days.; assay type: functional
[2] = system: L1210; test: In vivo antitumor activity against L1210 leukemia in 10 mice measured as median survival range at 120 mg/kg; Value ranges from(9-15); assay type: functional, Mus musculus
[3] = system: L1210; test: In vivo antitumor activity against L1210 leukemia in 5 mice measured as median survival range at 240 mg/kg; Value ranges from(13-18); assay type: functional, Mus musculus
[4] = system: L1210; test: In vivo antitumor activity against L1210 leukemia in 5 mice measured as Increased life span at 280 mg/kg.; assay type: functional; details: Mus musculus
[5] = system: Mus musculus; test: Average weight of the mouse after treating with 240 mg/kg dose for 1 day.; assay type: functional
[6] = system: L1210; test: In vivo antitumor activity against L1210 leukemia in 10 mice measured as Increased life span at 160 mg/kg.; assay type: functional; details: Mus musculus
[7] = system: Mus musculus; test: Average weight of the mouse after treating with 160 mg/kg dose for 1 day.; assay type: functional
[8] = system: L1210; test: In vivo antitumor activity against L1210 leukemia in 10 mice measured as median survival range at 160 mg/kg; Value ranges from(10-16).; assay type: functional, Mus musculus
[9] = system: L1210; test: In vivo antitumor activity against L1210 leukemia in 5 mice measured as Increased life span at 240 mg/kg.; assay type: functional; details: Mus musculus
[10] = system: Mus musculus; test: Average weight of the mouse after treating with 200 mg/kg dose for 7 days.; assay type: functional
[11] = system: Mus musculus; test: In vivo antitumor activity against L1210 leukemia in 16 mice measured as T/C values(days); T/C = 16/9; assay type: functional
[12] = system: L1210; test: In vivo antitumor activity against L1210 leukemia in 10 mice measured as Increased life span at 120 mg/kg.; assay type: functional; details: Mus musculus
[13] = system: L1210; test: In vivo antitumor activity against L1210 leukemia in 13 mice measured as T/C values(days); T/C = 13/9; assay type: functional, Mus musculus
[14] = system: L1210; test: In vivo antitumor activity against L1210 leukemia in 5 mice measured as median survival range at 280 mg/kg; Value ranges from(14-20); assay type: functional, Mus musculus
[15] = system: Mus musculus; test: In vivo antitumor activity against L1210 leukemia in 5 mice measured as median survival range at 200 mg/kg; Value ranges from(13-18); assay type: functional
[16] = system: Mus musculus; test: Average weight of the mouse after treating with 200 mg/kg dose for 1 day.; assay type: functional
[17] = system: Mus musculus; test: Average weight of the mouse after treating with 240 mg/kg dose for 7 days.; assay type: functional
[18] = system: Mus musculus; test: Average weight of the mouse after treating with 280 mg/kg dose for 1 day.; assay type: functional
[19] = system: L1210; test: In vivo antitumor activity against L1210 leukemia in 17 mice measured as T/C values(days); T/C = 17/9; assay type: functional, Mus musculus
[20] = system: Mus musculus; test: In vivo antitumor activity against L1210 leukemia in 5 mice measured as Increased life span at 200 mg/kg.; assay type: functional
[21] = system: L1210; test: In vivo antitumor activity against L1210 leukemia in 15 mice measured as T/C values(days); T/C = 15/9; assay type: functional, Mus musculus
[22] = system: Mus musculus; test: Average weight of the mouse after treating with 120 mg/kg dose for 1 day.; assay type: functional
[23] = system: Mus musculus; test: Average weight of the mouse after treating with 280 mg/kg dose for 7 days.; assay type: functional
[24] = system: Mus musculus; test: Average weight of the mouse after treating with 120 mg/kg dose for 7 days.; assay type: functional
[25] = system: L1210; test: In vivo antitumor activity against L1210 leukemia in 15 mice measured as T/C values; T/C = 15/11; assay type: functional, Mus musculus
[26] = system: Mus musculus; test: Average weight of the mouse after treating with 400 mg/kg dose for 1 day.; assay type: functional
[27] = system: L1210; test: In vivo antitumor activity against L1210 leukemia in 5 mice measured as Increased life span at 400 mg/kg.; assay type: functional, Mus musculus
[28] = system: L1210; test: In vivo antitumor activity against L1210 leukemia in 5 mice measured as median survival range at 400 mg/kg; Value ranges from (14-20).; assay type: functional, Mus musculus
[29] = system: Mus musculus; test: Average weight of the mouse after treating with 400 mg/kg dose for 7 day.; assay type: functional
[30] = system: L1210; test: In vivo anti tumor activity against L1210 leukemia in 5 mice measured as Increased life span at 45 mg/kg; assay type: functional; details: Mus musculus
[31] = system: Mus musculus; test: Average weight of the mouse after treating with 90 mg/kg dose for 1 day; assay type: functional
[32] = system: L1210; test: In vivo antitumor activity against L1210 leukemia in 5 mice measured as median survival range at 90 mg/kg; Value ranges from (13-19); assay type: functional, Mus musculus
[33] = system: L1210; test: In vivo anti tumor activity against L1210 leukemia in 5 mice measured as Increased life span at 180 mg/kg; assay type: functional; details: Mus musculus
[34] = system: Mus musculus; test: Average weight of the mouse after treating with 45 mg/kg dose for 1 day; assay type: functional
[35] = system: L1210; test: In vivo antitumor activity against L1210 leukemia in 5 mice measured as median survival range at 180 mg/kg; Value ranges from (14-23); assay type: functional, Mus musculus
[36] = system: L1210; test: In vivo anti tumor activity against L1210 leukemia in 5 mice measured as Increased life span at 90 mg/kg; assay type: functional; details: Mus musculus
[37] = system: L1210; test: In vivo antitumor activity against L1210 leukemia in 5 mice measured as median survival range at 45 mg/kg; Value ranges from (11-13); assay type: functional, Mus musculus
[38] = system: Mus musculus; test: Average weight of the mouse after treating with 180 mg/kg dose for 1 day; assay type: functional
[39] = system: Mus musculus; test: Average weight change in mouse after treating with 180 mg/kg dose for 7 days.; assay type: functional
[40] = system: Mus musculus; test: Average weight change in mouse after treating with 90 mg/kg dose for 7 days.; assay type: functional
[41] = system: Mus musculus; test: Average weight of the mouse after treating with 20 mg/kg dose for 1 day.; assay type: functional; parameters: unit not given here
[42] = system: L1210; test: In vivo antitumor activity against L1210 leukemia in 5 mice measured as Increased life span at 40 mg/kg.; assay type: functional; details: Mus musculus
[43] = system: Mus musculus; test: Average weight of the mouse after treating with 40 mg/kg dose for 1 day.; assay type: functional; parameters: unit not given here
[44] = system: L1210; test: In vivo antitumor activity against L1210 leukemia in 5 mice measured as Increased life span at 20 mg/kg.; assay type: functional; details: Mus musculus
[45] = system: L1210; test: In vivo antitumor activity against L1210 leukemia in 17 mice measured as T/C values; T/C = 17/9; assay type: functional, Mus musculus
[46] = system: Mus musculus; test: Average weight of the mouse after treating with 40 mg/kg dose for 7 days.; assay type: functional
[47] = system: Mus musculus; test: Average weight of the mouse after treating with 20 mg/kg dose for 7 day.; assay type: functional
[48] = system: L1210; test: In vivo antitumor activity against L1210 leukemia in 13 mice measured as T/C values; T/C = 13/9; assay type: functional, Mus musculus
[49] = system: L1210; test: In vivo antitumor activity against L1210 leukemia in 5 mice measured as median survival range at 20 mg/kg; Value ranges from(11-19); assay type: functional, Mus musculus
[50] = system: L1210; test: In vivo antitumor activity against L1210 leukemia in 5 mice measured as median survival range at 40 mg/kg; value ranges from(11-21); assay type: functional, Mus musculus

CN(Cc1cnc2nc(N)nc(N)c2n1)c1c(Cl)cc(C(=O)NC(CCC(=O)O)C(=O)O)cc1Cl (stereo not given)
Weight change [1]: 2.9 | Range [2]: 15 | Range [3]: 18 | ILS at 280 mg/kg [4]: 89% | Average weight [5]: 22.4 | ILS at 160 mg/kg [6]: 44% | Average weight [7]: 22.5 | Range [8]: 16 | ILS at 240 mg/kg [9]: 67% | Weight change [10]: 1.8 | T/C [11]: 9 | ILS at 120 mg/kg [12]: 22% | T/C [13]: 9 | Range [14]: 20 | Range [15]: 18 | Average weight [16]: 24.2 | Weight change [17]: 2.1 | Average weight [18]: 21.4 | T/C [19]: 9 | ILS at 200 mg/kg [20]: 78% | T/C [21]: 9 | Average weight [22]: 22.4 | Weight change [23]: 1.4 | Weight change [24]: 2.4

CN(Cc1cnc2nc(N)nc(N)c2n1)c1ccc(C(=O)NC(CCC(=O)OC(C)(C)C)C(=O)OC(C)(C)C)cc1 (stereo not given)
T/C [25]: 11 | Average weight [26]: 27.6 | ILS [27]: 36 | Range [28]: 20 | Weight change [29]: 2.6

CCCCCCCCOC(=O)CCC(NC(=O)c1cc(Cl)c(N(C)Cc2cnc3nc(N)nc(N)c3n2)c(Cl)c1)C(=O)OCCCCCCCC (stereo not given)
ILS at 45 mg/kg [30]: 44% | Average weight [31]: 28.2 | Range [32]: 19 | ILS at 180 mg/kg [33]: 122% | Average weight [34]: 26.2 | Range [35]: 23 | ILS at 90 mg/kg [36]: 66% | Range [37]: 13 | Average weight [38]: 28.2 | Weight change [39]: 5.8 | Weight change [40]: 1.4 and 3.6

Cc1cc(C)c(COC(=O)CCC(NC(=O)c2ccc(N(C)Cc3cnc4nc(N)nc(N)c4n3)cc2)C(=O)OCc2c(C)cc(C)cc2C)c(C)c1 (stereo not given)
Average weight [41]: 20.4 | ILS at 40 mg/kg [42]: 88% | Average weight [43]: 22 | ILS at 20 mg/kg [44]: 44% | T/C [45]: 9 | Weight change [46]: 0 | Weight change [47]: 0.8 | T/C [48]: 9 | Range [49]: 19 | Range [50]: 21
